We go through three molecules from paper PMC7617978, “Anti-trypanosomal quinazolines targeting lysyl-tRNA synthetases show partial efficacy in a mouse model of acute Chagas disease” (Science translational medicine, 2025).

“And” between values parts separate entries of the source, which are not always exact repeats. Equal values may be shown once. Read-outs that look alike come from different tables or passages of the source.

In experiment [1] the test system is T. cruzi (Sylvio X10/7A1 strain) epimastigote. As to the kind of experiment: microbe, parasite or virus in culture. The format is cell-based. To be noted: epimastigote; for EC50: read-out: EC50.
In experiment [2] the test system is T. b. brucei BSF. As to the kind of experiment: Drug sensitivity assay, T. b. brucei bloodstream forms. It counts as cell-based. To be noted: BSF; for EC50: read-out: EC50.
Experiment [3] has as its system L. donovani (LdBOB) promastigote. Nature of the experiment: Drug sensitivity assay, L. donovani promastigotes. The following applies: promastigote; for EC50: read-out: EC50. The format is cell-based.
The subject of experiment [4] is T. cruzi CL Brener strain. Nature of the experiment: Bioluminescent mouse model of acute T. cruzi infection. The following applies: 100 mg/kg QD oral, 5 days, in words. It counts as in vivo, BALB/c mice. On the procedure: Female BALB/c mice (aged 6-7 weeks), purchased from Charles River (UK), were maintained under specific pathogen-free conditions in individually ventilated cages, with a 12 h light/dark cycle. They had access to food and water ad libitum. Mice were infected by intraperitoneal injection (i.p) of 1x10^3 bloodstream trypomastigotes derived from CB17 SCID mouse blood.
Compounds were prepared in 5% (v/v) dimethyl sulfoxide /95% HPMC suspension vehicle (0.5% (w/v) hydroxypropyl methylcellulose, 0.5% (v/v) benzyl alcohol, 0.4% (v/v) Tween 80 in Milli-Q water). Mice were treated as outlined in Fig. 5, with compounds administered by oral gavage. At different days after infection, mice were injected with d-luciferin (150 mg/kg) i.p., anaesthetized using 2.5% (v/v) gaseous isoflurane and imaged using an IVIS Spectrum (Revvity, Hopkinton, MA, USA) 5-10 min later. To estimate parasite burden, mice ventral and dorsal regions of interest were drawn using Living Image 4.7.3 to quantify bioluminescence expressed as total flux (photons/second; p/s). Regions of interest data from infected and not-infected mice were used as controls. Exposure times varied between 30 sec and 5 min, depending on the signal intensity.

In experiment [5] the target is Trypanosoma cruzi lysyl-tRNA synthetase 1 (TcKRS1), recombinant, residues 54-580 (Trypanosoma cruzi). Nature of the experiment: SEC; size exclusion chromatography as the last step of purification of recombinant TcKRS1 (tag cleaved); running buffer not stated.

As to `O=C(NCC1(O)CCC(F)(F)CC1)c1cc(=O)c2cc(F)ccc2o1` [DDD01510706, reference compound], the “Fold-shift (relative to WT)” value in experiment [1] (KRS1 OE) was 9 fold; in experiment [1] (KRS1 S319L), 25 fold; in experiment [2] (KRS1 OE) it was 5 fold and ~ 5 fold; in experiment [2] (KRS1 serine-to-leucine mutant (S323L; printed S319L in Table S1)), 53 fold; in experiment [3] (KRS1 OE), 11 fold; in experiment [3] (KRS1 S324L), 12 fold. Further, the EC50 in experiment [1] (KRS1 OE) was 13 ± 0.4 µM; in experiment [1] (KRS1 S319L) it was 36 ± 4 µM; in experiment [1] (WT), 1.4 ± 0.04 µM; in experiment [2] (KRS1 OE), 3000 ± 100 nM; in experiment [2] (KRS1 S323L), 33000 ± 1000 nM; in experiment [2] (WT) it was 600 ± 10 nM. The figures for the EC50 in experiment [3] (KRS1 OE) and in experiment [3] (WT) were 8 ± 0.5 µM and 0.7 ± 0.01 µM, respectively.
Take `O=C(Cn1ccnc1[N+](=O)[O-])NCc1ccccc1` [benznidazole, reference compound]: in experiment [4], the “parasite burden after treatment” value was “reduced close to the limit of detection”.
With “Trypanosoma cruzi lysyl-tRNA synthetase 1 (TcKRS1), recombinant, residues 54-580 (enzyme)”, the stoichiometry N in experiment [5] was 2.
